Data reported in patent EP3212201B1, “NUCLEOSIDE KINASE INHIBITORS” (BCI Pharma, priority 2014, dated 2016).

Assays:
Assay in all cases: FRET-based coupled-enzyme protein kinase inhibition assay
Type in all cases: biochemical
Conditions in all cases: compound at 10 µM, 1% DMSO
[1] = target: MAPK3 (ERK1) (Homo sapiens, UniProt P27361)
Procedure, shortened: (§1)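 Inhibition was quantified ratiometrically, as coumarin over fluorescein emission following 400 nm excitation, on a doubly labeled peptide whose cleavage by development reagent requires it to remain unphosphorylated. Kinase reactions ran 60 min at room temperature with ATP at apparent Km.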

[2] = target: T1, DYRK3 (Homo sapiens, UniProt O43781)
T1 sequence (O43781 1-588): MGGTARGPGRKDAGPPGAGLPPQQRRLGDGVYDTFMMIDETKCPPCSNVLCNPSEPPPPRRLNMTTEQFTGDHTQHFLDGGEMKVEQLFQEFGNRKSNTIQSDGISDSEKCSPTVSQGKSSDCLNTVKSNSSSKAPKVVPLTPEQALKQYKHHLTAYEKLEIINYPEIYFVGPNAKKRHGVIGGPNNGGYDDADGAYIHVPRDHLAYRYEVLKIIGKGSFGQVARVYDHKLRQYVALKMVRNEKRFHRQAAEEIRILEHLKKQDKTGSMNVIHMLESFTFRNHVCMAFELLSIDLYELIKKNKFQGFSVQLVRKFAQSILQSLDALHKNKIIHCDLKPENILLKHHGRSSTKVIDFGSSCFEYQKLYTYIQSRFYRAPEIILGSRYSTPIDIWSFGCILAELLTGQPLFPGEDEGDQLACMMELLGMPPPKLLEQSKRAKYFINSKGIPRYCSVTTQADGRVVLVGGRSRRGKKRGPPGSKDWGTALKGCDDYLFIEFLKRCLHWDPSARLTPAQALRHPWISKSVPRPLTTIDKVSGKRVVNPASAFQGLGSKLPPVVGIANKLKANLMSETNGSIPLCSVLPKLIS
Procedure, shortened: as §1

[3] = target: SYK (Homo sapiens, UniProt P43405)
Procedure, shortened: as §1

[4] = target: AKT1 (PKB alpha) (Homo sapiens, UniProt P31749)
Chain of AKT1 (PKB alpha) (P31749 whole entry, species assumed): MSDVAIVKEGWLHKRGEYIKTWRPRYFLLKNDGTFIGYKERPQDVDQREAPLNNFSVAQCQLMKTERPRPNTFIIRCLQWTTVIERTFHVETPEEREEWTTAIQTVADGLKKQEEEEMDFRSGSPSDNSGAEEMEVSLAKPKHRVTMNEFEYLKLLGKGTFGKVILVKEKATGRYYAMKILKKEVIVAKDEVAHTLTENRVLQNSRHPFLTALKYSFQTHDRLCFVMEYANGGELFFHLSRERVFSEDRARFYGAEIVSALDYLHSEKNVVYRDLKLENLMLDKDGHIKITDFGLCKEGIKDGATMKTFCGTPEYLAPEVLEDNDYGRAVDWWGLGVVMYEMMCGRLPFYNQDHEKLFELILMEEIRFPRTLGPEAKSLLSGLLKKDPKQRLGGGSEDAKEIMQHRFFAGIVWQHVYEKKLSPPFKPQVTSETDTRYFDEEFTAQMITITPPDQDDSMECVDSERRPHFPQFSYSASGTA
Procedure, shortened: as §1

[5] = target: MAP4K4 (HGK) (Homo sapiens, UniProt O95819)
Chain of MAP4K4 (HGK) (O95819 whole entry, species assumed): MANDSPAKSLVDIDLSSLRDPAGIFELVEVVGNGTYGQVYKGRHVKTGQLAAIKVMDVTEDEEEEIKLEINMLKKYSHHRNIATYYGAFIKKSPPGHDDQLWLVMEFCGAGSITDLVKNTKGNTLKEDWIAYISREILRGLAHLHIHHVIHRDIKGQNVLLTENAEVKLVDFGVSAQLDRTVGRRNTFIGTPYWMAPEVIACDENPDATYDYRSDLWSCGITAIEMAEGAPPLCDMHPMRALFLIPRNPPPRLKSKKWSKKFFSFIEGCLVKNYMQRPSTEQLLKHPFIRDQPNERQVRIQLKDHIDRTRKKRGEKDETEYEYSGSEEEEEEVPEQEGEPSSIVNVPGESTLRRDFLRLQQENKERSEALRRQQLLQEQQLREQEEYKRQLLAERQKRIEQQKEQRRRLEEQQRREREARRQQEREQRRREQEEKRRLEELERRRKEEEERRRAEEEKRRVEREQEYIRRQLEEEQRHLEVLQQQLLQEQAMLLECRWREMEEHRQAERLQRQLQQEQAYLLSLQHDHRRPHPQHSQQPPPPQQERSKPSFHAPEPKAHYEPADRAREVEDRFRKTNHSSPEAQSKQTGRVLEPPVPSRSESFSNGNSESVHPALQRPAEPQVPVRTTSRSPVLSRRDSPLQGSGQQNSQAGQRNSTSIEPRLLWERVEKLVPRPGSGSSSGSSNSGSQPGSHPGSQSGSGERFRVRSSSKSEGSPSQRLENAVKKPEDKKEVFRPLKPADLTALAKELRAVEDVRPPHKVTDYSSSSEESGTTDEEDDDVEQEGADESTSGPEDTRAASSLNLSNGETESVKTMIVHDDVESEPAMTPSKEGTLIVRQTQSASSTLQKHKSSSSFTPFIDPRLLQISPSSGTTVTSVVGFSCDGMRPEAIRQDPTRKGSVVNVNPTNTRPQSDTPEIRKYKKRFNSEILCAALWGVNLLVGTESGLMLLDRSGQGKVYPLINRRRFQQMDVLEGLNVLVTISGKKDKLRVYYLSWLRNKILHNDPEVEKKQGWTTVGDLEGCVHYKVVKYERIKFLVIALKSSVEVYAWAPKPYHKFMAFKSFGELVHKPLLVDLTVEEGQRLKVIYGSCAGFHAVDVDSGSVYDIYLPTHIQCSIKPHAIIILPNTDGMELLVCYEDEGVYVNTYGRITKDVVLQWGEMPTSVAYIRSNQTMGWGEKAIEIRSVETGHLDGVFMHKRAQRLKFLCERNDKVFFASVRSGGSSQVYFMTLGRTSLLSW
Procedure, shortened: as §1

[6] = target: BTK (Homo sapiens, UniProt Q06187)
Chain of BTK (Q06187 whole entry, species assumed): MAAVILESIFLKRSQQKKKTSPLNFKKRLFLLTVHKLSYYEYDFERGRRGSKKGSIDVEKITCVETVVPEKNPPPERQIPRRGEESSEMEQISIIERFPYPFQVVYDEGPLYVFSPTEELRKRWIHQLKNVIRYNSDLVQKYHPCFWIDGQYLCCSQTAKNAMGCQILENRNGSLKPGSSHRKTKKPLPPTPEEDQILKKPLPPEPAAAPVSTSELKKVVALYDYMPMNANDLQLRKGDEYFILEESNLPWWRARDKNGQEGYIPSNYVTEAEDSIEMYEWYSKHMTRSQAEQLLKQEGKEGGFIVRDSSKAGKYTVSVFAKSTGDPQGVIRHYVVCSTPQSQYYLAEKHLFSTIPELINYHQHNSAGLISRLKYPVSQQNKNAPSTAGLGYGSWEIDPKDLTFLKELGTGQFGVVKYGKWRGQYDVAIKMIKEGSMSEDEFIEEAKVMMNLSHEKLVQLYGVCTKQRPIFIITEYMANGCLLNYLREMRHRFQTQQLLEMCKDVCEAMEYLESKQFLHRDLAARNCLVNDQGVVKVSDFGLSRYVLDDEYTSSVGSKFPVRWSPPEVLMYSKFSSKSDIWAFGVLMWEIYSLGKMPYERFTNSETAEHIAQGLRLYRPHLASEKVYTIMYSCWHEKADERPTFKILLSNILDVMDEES
Procedure, shortened: as §1

[7] = target: CDK1/cyclin B (Homo sapiens, UniProt P06493)
Chain of CDK1/cyclin B (P06493 whole entry, species assumed): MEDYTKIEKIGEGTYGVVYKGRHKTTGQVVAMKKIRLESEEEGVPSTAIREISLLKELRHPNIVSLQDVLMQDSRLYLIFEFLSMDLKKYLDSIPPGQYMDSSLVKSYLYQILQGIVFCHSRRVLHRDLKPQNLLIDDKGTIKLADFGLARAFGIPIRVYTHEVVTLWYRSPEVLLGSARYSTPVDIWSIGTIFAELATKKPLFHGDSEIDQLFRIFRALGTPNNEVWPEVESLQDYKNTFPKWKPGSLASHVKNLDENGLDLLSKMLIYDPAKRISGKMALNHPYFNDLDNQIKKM
Chain of CDK1/cyclin B (P14635 whole entry partner, species assumed): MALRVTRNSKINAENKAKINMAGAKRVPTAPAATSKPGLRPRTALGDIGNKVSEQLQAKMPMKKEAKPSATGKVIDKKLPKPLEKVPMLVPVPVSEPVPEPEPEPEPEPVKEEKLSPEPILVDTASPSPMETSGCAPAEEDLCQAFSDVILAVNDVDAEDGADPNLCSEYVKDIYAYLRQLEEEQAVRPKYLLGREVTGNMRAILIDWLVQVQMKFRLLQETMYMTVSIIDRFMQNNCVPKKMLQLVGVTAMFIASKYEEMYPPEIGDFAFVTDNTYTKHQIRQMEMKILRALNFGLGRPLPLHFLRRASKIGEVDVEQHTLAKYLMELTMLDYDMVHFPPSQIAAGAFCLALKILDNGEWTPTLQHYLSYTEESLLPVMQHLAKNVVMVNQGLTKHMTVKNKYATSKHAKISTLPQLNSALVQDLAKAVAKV
Procedure, shortened: as §1

[8] = target: PAK4 (Homo sapiens, UniProt O96013)
Chain of PAK4 (O96013 whole entry, species assumed): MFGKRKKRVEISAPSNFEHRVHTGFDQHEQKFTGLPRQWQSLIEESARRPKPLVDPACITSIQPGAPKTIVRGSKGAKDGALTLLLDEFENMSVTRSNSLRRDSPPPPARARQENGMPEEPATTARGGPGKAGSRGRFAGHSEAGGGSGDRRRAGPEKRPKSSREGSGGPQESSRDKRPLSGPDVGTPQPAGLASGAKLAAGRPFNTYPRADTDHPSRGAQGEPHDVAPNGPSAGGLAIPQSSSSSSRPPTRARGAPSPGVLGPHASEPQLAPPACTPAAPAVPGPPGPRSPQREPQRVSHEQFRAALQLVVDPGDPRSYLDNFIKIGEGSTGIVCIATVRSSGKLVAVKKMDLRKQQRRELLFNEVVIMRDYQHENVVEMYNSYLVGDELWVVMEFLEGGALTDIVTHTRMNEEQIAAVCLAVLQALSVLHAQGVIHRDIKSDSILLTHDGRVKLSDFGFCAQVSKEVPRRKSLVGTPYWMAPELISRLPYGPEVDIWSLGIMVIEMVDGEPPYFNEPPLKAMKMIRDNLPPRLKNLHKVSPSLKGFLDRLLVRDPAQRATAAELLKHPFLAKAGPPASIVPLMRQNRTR
Procedure, shortened: as §1

[9] = target: IGF1R (Homo sapiens, UniProt P08069)
Chain of IGF1R (P08069 31-1367, species assumed): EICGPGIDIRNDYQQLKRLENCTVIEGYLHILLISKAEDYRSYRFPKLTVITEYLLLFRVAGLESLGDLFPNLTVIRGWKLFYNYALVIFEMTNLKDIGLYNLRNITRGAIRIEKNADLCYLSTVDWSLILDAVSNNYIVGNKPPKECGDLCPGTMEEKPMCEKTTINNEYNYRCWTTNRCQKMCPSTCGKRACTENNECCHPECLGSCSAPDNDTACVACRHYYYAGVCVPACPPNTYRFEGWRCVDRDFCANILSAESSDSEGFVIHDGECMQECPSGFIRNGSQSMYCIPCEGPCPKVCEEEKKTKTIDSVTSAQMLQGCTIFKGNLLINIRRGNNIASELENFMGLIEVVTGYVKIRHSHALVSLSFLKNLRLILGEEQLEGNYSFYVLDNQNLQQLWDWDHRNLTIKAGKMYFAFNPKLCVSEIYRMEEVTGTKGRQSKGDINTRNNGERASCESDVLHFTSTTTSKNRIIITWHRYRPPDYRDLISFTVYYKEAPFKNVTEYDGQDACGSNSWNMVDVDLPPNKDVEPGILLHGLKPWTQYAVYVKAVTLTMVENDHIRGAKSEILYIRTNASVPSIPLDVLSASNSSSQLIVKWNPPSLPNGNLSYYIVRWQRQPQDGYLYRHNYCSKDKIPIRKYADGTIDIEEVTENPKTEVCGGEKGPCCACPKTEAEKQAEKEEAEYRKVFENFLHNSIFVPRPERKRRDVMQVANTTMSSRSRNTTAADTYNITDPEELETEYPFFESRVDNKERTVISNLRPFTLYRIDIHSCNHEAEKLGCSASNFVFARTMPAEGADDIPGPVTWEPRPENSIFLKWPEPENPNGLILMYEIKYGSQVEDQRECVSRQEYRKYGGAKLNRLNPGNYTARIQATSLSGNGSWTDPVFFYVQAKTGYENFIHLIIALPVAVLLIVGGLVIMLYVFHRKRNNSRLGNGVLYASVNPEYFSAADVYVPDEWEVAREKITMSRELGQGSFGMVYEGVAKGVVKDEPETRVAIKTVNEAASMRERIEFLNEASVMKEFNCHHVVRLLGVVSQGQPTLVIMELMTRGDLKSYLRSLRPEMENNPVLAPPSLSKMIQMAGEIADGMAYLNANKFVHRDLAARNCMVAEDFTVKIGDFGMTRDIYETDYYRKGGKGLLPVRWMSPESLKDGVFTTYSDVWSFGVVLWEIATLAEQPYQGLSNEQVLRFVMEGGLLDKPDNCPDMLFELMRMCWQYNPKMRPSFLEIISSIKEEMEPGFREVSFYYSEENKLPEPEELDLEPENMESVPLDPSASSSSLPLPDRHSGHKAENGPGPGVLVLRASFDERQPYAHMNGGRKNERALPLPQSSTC
Procedure, shortened: as §1

CC(C)N1CCC(NC(=O)OC[C@H]2O[C@@H](n3cnc4c(N)ncnc43)[C@H](O)[C@@H]2O)CC1 [Compound C19] was tested, and the inhibition at 10 µM [1] was 4%, the inhibition at 10 µM [2] was 9% and the inhibition at 10 µM [3] was -1%. It also gave an inhibition at 10 µM [4] of 3%, an inhibition at 10 µM [5] of 17% and an inhibition at 10 µM [6] of -1%. It also gave an inhibition at 10 µM [7] of 7%, an inhibition at 10 µM [8] of 3% and an inhibition at 10 µM [9] of -2%.

With Nc1ncnc2c1ncn2[C@@H]1O[C@H](COC(=O)N2CCN(Cc3ccccc3)CC2CO)[C@@H](O)[C@H]1O (stereo partly drawn) [Compound C13] the inhibition at 10 µM [1] was 5%, the inhibition at 10 µM [2] was 9% and the inhibition at 10 µM [3] was 0%. The inhibition at 10 µM [4] was 2%, the inhibition at 10 µM [5] was -5% and the inhibition at 10 µM [6] was 9%. For the same compound, the inhibition at 10 µM [7] was 9%, the inhibition at 10 µM [8] was 7% and the inhibition at 10 µM [9] was 2%.

In the case of C[C@@H](NC(=O)OC[C@H]1O[C@@H](n2cnc3c(N)ncnc32)[C@H](O)[C@@H]1O)c1ccc(Cl)cc1 [Compound C4], the inhibition at 10 µM [1] is reported as 6%, the inhibition at 10 µM [2] is reported as 5% and the inhibition at 10 µM [3] is reported as 4%. For the same compound, the inhibition at 10 µM [4] was -2%, the inhibition at 10 µM [5] was 16% and the inhibition at 10 µM [6] was 2%. It also gave an inhibition at 10 µM [7] of 8%, an inhibition at 10 µM [8] of 12% and an inhibition at 10 µM [9] of 11%.

Nc1ncnc2c1ncn2[C@@H]1O[C@H](COC(=O)NC[C@H](O)CO)[C@@H](O)[C@H]1O [Compound C8] showed an inhibition at 10 µM [1] of 12%, an inhibition at 10 µM [2] of 31% and an inhibition at 10 µM [3] of 7%. It also gave an inhibition at 10 µM [4] of 7%, an inhibition at 10 µM [5] of 9% and an inhibition at 10 µM [6] of 4%. It also gave an inhibition at 10 µM [7] of 4%, an inhibition at 10 µM [8] of 19% and an inhibition at 10 µM [9] of 5%.

Nc1ncnc2c1ncn2[C@@H]1O[C@H](COC(=O)N[C@@H]2CCN(Cc3ccccc3)C2)[C@@H](O)[C@H]1O [Compound C10] was tested, and the inhibition at 10 µM [1] was 5%, the inhibition at 10 µM [2] was 8% and the inhibition at 10 µM [3] was 1%. The inhibition at 10 µM [4] was 4%, the inhibition at 10 µM [5] was 8% and the inhibition at 10 µM [6] was 7%. For the same compound, the inhibition at 10 µM [7] was 11%, the inhibition at 10 µM [8] was 14% and the inhibition at 10 µM [9] was 8%.

Nc1ncnc2c1ncn2[C@@H]1O[C@H](COC(=O)N2CCN(C(=O)N3CCOCC3)CC2)[C@@H](O)[C@H]1O [Compound C89] was tested, and the inhibition at 10 µM [1] was 3%, the inhibition at 10 µM [2] was 3% and the inhibition at 10 µM [3] was -5%. The inhibition at 10 µM [4] was 2%, the inhibition at 10 µM [5] was 9% and the inhibition at 10 µM [6] was 4%. For the same compound, the inhibition at 10 µM [7] was 1%, the inhibition at 10 µM [8] was -4% and the inhibition at 10 µM [9] was 2%.

Nc1ncnc2c1ncn2[C@@H]1O[C@H](COC(=O)N2CCS(=O)(=O)CC2)[C@@H](O)[C@H]1O [Compound C100] gave an inhibition at 10 µM [1] of 10%, an inhibition at 10 µM [2] of 12% and an inhibition at 10 µM [3] of -3%. It also gave an inhibition at 10 µM [4] of 8%, an inhibition at 10 µM [5] of -6% and an inhibition at 10 µM [6] of -5%. It also gave an inhibition at 10 µM [7] of 5%, an inhibition at 10 µM [8] of 2% and an inhibition at 10 µM [9] of 11%.

For Nc1ncnc2c1ncn2[C@@H]1O[C@H](COC(=O)N2CCN(CCc3ccccc3)CC2)[C@@H](O)[C@H]1O [Compound C26], the inhibition at 10 µM [1] was 8%, the inhibition at 10 µM [2] was 2% and the inhibition at 10 µM [3] was -4%. It also gave an inhibition at 10 µM [4] of 0%, an inhibition at 10 µM [5] of 17% and an inhibition at 10 µM [6] of 0%. The inhibition at 10 µM [7] was 8%, the inhibition at 10 µM [8] was 6% and the inhibition at 10 µM [9] was 8%.
